Test results as given in BigSolDB 2.1.

O=c1c2ccccc2sc2ccccc12
Conditions | solubility (mole fraction)
in 1,4-dioxane, 292.15 K | 0.00919
in 1,4-dioxane, 297.05 K | 0.01
in 1,4-dioxane, 302.05 K | 0.0109
in 1,4-dioxane, 305.05 K | 0.0115
in 1,4-dioxane, 307.95 K | 0.0121
in 1,4-dioxane, 311.15 K | 0.0127
in 1,4-dioxane, 313.85 K | 0.0134
in 1,4-dioxane, 316.85 K | 0.0141
in 1,4-dioxane, 319.35 K | 0.0146
in 1,4-dioxane, 322.55 K | 0.0153
in 1,4-dioxane, 326.55 K | 0.0163
in 1,4-dioxane, 331.55 K | 0.0175
in 1,4-dioxane, 335.95 K | 0.0186
in 2-butanone, 292.15 K | 0.00309
in 2-butanone, 297.05 K | 0.00398
in 2-butanone, 301.95 K | 0.00441
in 2-butanone, 306.65 K | 0.00519
in 2-butanone, 311.25 K | 0.00604
in 2-butanone, 316.15 K | 0.00696
in 2-butanone, 321.25 K | 0.00805
in 2-butanone, 326.55 K | 0.00947
in 2-butanone, 331.55 K | 0.0111
in 2-butanone, 335.95 K | 0.0124
in THF, 292.15 K | 0.00867
in THF, 297.05 K | 0.0101
in THF, 301.95 K | 0.0114
in THF, 306.65 K | 0.0129
in THF, 311.25 K | 0.0147
in THF, 316.15 K | 0.0167
in THF, 321.25 K | 0.0189
in THF, 326.55 K | 0.0213
in THF, 331.55 K | 0.024
in THF, 335.95 K | 0.0274
in acetone, 292.15 K | 0.00191
in acetone, 297.05 K | 0.00225
in acetone, 302.05 K | 0.00265
in acetone, 305.05 K | 0.00293
in acetone, 307.95 K | 0.00317
in acetone, 311.15 K | 0.00356
in acetone, 313.85 K | 0.00389
in acetone, 316.85 K | 0.00407
in acetone, 319.35 K | 0.00456
in acetone, 322.55 K | 0.00492
in acetone, 326.55 K | 0.0055
in acetonitrile, 292.15 K | 0.000466
in acetonitrile, 297.05 K | 0.000614
in acetonitrile, 302.05 K | 0.000806
in acetonitrile, 305.05 K | 0.000947
in acetonitrile, 307.95 K | 0.0011
in acetonitrile, 311.15 K | 0.00132
in acetonitrile, 313.85 K | 0.00147
in acetonitrile, 316.85 K | 0.0017
in acetonitrile, 319.35 K | 0.00192
in acetonitrile, 322.55 K | 0.00225
in acetonitrile, 326.55 K | 0.0027
in acetonitrile, 331.55 K | 0.00336
in acetonitrile, 335.95 K | 0.00411
in dichloromethane, 292.15 K | 0.00692
in dichloromethane, 297.05 K | 0.00849
in dichloromethane, 301.95 K | 0.00981
in dichloromethane, 306.65 K | 0.0114
in dichloromethane, 311.25 K | 0.0134
in ethanol, 292.15 K | 0.000194
in ethanol, 297.05 K | 0.000289
in ethanol, 302.05 K | 0.000428
in ethanol, 305.05 K | 0.000544
in ethanol, 307.95 K | 0.000657
in ethanol, 311.15 K | 0.000847
in ethanol, 313.85 K | 0.00103
in ethanol, 316.85 K | 0.00126
in ethanol, 319.35 K | 0.00153
in ethanol, 322.55 K | 0.00189
in ethanol, 326.55 K | 0.00247
in ethanol, 331.55 K | 0.00342
in ethanol, 335.95 K | 0.00452
in ethyl acetate, 292.15 K | 0.00273
in ethyl acetate, 297.05 K | 0.00319
in ethyl acetate, 302.05 K | 0.00371
in ethyl acetate, 305.05 K | 0.00405
in ethyl acetate, 307.95 K | 0.00444
in ethyl acetate, 311.15 K | 0.00485
in ethyl acetate, 313.85 K | 0.00525
in ethyl acetate, 316.85 K | 0.00565
in ethyl acetate, 319.35 K | 0.00608
in ethyl acetate, 322.55 K | 0.00655
in ethyl acetate, 326.55 K | 0.00732
in ethyl acetate, 331.55 K | 0.0083
in ethyl acetate, 335.95 K | 0.00924
in isopropanol, 292.15 K | 0.000395
in isopropanol, 297.05 K | 0.000539
in isopropanol, 302.05 K | 0.000733
in isopropanol, 305.05 K | 0.000877
in isopropanol, 307.95 K | 0.00106
in isopropanol, 311.15 K | 0.00126
in isopropanol, 313.85 K | 0.00145
in isopropanol, 316.85 K | 0.00172
in isopropanol, 319.35 K | 0.00198
in isopropanol, 322.55 K | 0.00234
in isopropanol, 326.55 K | 0.00288
in isopropanol, 331.55 K | 0.00371
in isopropanol, 335.95 K | 0.00461
in methanol, 292.15 K | 0.000163
in methanol, 297.05 K | 0.000225
in methanol, 301.95 K | 0.000284
in methanol, 306.65 K | 0.000316
in methanol, 311.25 K | 0.0004
in methanol, 316.15 K | 0.000469
in methanol, 321.25 K | 0.00062
in methanol, 326.55 K | 0.000788
in methanol, 331.55 K | 0.000921
in methanol, 335.95 K | 0.00106
in n-propanol, 292.15 K | 0.000546
in n-propanol, 297.05 K | 0.00061
in n-propanol, 301.95 K | 0.000782
in n-propanol, 306.65 K | 0.000892
in n-propanol, 311.25 K | 0.00114
in n-propanol, 316.15 K | 0.00134
in n-propanol, 321.25 K | 0.00175
in n-propanol, 326.55 K | 0.00214
in n-propanol, 331.55 K | 0.00251
in n-propanol, 335.95 K | 0.00317
in toluene, 292.15 K | 0.00373
in toluene, 297.05 K | 0.00456
in toluene, 302.05 K | 0.00554
in toluene, 305.05 K | 0.00624
in toluene, 307.95 K | 0.0069
in toluene, 311.15 K | 0.00782
in toluene, 313.85 K | 0.00858
in toluene, 316.85 K | 0.0096
in toluene, 319.35 K | 0.0103
in toluene, 322.55 K | 0.0116
in toluene, 326.55 K | 0.0134
in toluene, 331.55 K | 0.0158
in toluene, 335.95 K | 0.0181
